The values below come from patent US20240173327A1, “NEW TREATMENT” (Verona Pharma PLC, priority 2022, published 2024).

Molecules are shown by their SMILES.

In the assay the test system is patients aged 40-80 years with moderate to severe COPD. Kind of assay: Multi-centre, randomized, double-blind, placebo-controlled clinical study of nebulised ensifentrine in COPD (FEV1 spirometry). The format is in vivo. The conditions noted are these: for Average change in baseline FEV1 (AUC)0-12 h at Week 12: 3 mg BID by nebuliser. How it is done:
A clinical study was conducted to determine the efficacy of ensifentrine in treating COPD compared with placebo. Ensifentrine was administered by nebuliser at a dose of 3 mg twice daily (BID) for 24 weeks. The study was a multi-centre, randomized, double-blind, parallel-group, placebo-controlled trial with around 800 patients and 5:3 randomization.
The study population included patients aged 40-80 years with moderate to severe COPD (FEV1 30%-70% p.n., FEV1/forced vital capacity (FVC) ratio <0.7, with mMRC≥2). The randomization stratified (a) the use of stable background maintenance LAMA or LABA therapy use (approx. 50%. yes or no) and (b) cigarette smoking (current or former). Inhaled corticosteroid (ICS) maintenance therapy was permitted in up to 20% of patients under certain provisions.
The primary endpoint of the study was change from baseline in average FEV1 area under the curve (AUC)0-12 h post-dose at week 12. Secondary endpoints of the study included: peak FEV1 over 4 hours post-dose at Week 12; morning trough FEV1 at Week 12; and other endpoints including moderate/severe COPD exacerbations frequency over 24 Weeks.
COPD severity is derived as follows: mild: 80%<=FEV1, moderate: 50%<=FEV1<80% predicted, severe: 30%<=FEV1<50% predicted and very severe: FEV1<30% predicted, post bronchodilator dose at Screening.
Baseline FEV1 is the mean of the two measurements taken before study medication on the day of first dosing, i.e. ≤40 minutes and just prior to dosing, both pre-dose on day 1.
Average FEV1 AUC0-12 h is defined as area under the curve over 12 hours of the FEV1, divided by 12 hours.
The investigational product and placebo were provided in 2.5 mL unit dose format in an ampule and administered via a nebuliser.

Take `COc1cc2c(cc1OC)-c1c/c(=N\c3c(C)cc(C)cc3C)n(CCNC(N)=O)c(=O)n1CC2` [Ensifentrine, N-(2-{(2E)-9,10-dimethoxy-4-oxo-2-[(2,4,6-trimethylphenyl)imino]-6,7-dihydro-2H-pyrimido[6,1-a]isoquinolin-3(4H)-yl}ethyl)urea]: the “Improvement in lung function” value (all subgroups of COPD patients in the study) is “statistically significant”. For the same molecule, the “Improving lung function in moderate COPD” value (moderate COPD patients) is “particularly effective”. Also, the “Average change in baseline FEV1 (AUC)0-12 h at Week 12” value reads like this: (patients with moderate COPD) 139 mL; (patients with severe COPD) 45 mL.
